Reference: ChEMBL document CHEMBL2375306, “Antimicrobial peptides containing unnatural amino acid exhibit potent bactericidal activity against ESKAPE pathogens” (Bioorg Med Chem, 2013)
Converted amounts (≈) assume the structure as drawn. Square brackets hold non-standard residues; d marks the D form. Peptide text beside a SMILES is read from it. * marks the point of attachment. ξ: configuration not given here. X2 = NCCCC[C@H](NC(=O)[C@H](CCCCN)NC(=O)[C@H](CCCCN)NC(=O)[C@H](CCCCN)NCCCCCC(=O)[C@@H]1Cc2ccccc2CN1*)C(N)=O; Pro(3ξ,4ξ-(CH2)4) = O=C(O)[C@H]1NCC2CCCCC21; Pro(3,4-benzo) = O=C(O)[C@H]1NCc2ccccc21; Phe(4-F) = N[C@@H](Cc1ccc(F)cc1)C(=O)O; Tic = O=C(O)[C@@H]1Cc2ccccc2CN1; X1 = CC(=O)NC(=O)[C@H](CN)N*; Dap = NC[C@H](N)C(=O)O; GABA = NCCCC(=O)O; βAla = NCCC(=O)O

Experiments:
Assay type in all cases: functional
[1] = tested on: Enterococcus faecium; assay: Antibacterial activity against Enterococcus faecium MMC4 after 24 hrs by broth microdilution method; conditions: MMC4, 24 h
[2] = tested on: Klebsiella aerogenes; assay: Antibacterial activity against Enterobacter aerogenes after 24 hrs by broth microdilution method
[3] = tested on: Pseudomonas aeruginosa; assay: Antibacterial activity against Pseudomonas aeruginosa PAO1 after 24 hrs by broth microdilution method; conditions: PAO1, 24 h
[4] = tested on: Klebsiella pneumoniae; assay: Antibacterial activity against Klebsiella pneumoniae BAMS clinical isolate 07-18 after 24 hrs by broth microdilution method; conditions: BAMS clinical isolate 07-18, 24 h
[5] = tested on: Acinetobacter baumannii; assay: Antibacterial activity against Acinetobacter baumannii WRAIR clinical isolate 13 after 24 hrs by broth microdilution method; conditions: WRAIR clinical isolate 13, 24 h
[6] = tested on: Staphylococcus aureus; assay: Antibacterial activity against methicillin-sensitive Staphylococcus aureus UAMS-1 after 24 hrs by broth microdilution method; conditions: UAMS-1, 24 h

## CC(C)C[C@H](NC(=O)[C@@H](N)CCCCN)C(=O)N1Cc2ccccc2C[C@H]1C(=O)N1CC2CCCCC2[C@H]1C(=O)N[C@@H](CCCCN)C(=O)N1Cc2ccccc2C[C@H]1C(=O)N1CC2CCCCC2[C@H]1C(=O)NC(=O)CN[C@@H](Cc1ccccc1)C(=O)N1Cc2ccccc2C[C@H]1C(=O)N1CC2CCCCC2[C@H]1C(=O)N[C@@H](CCCCN)C(=O)N1Cc2ccccc2C[C@H]1C(=O)N1CC2CCCCC2[C@H]1C(=O)NC(=O)CN[C@@H](Cc1ccccc1)C(=O)N1Cc2ccccc2C[C@H]1C(=O)N1CC2CCCCC2[C@H]1C(=O)N[C@@H](CCCCN)C(=O)N1Cc2ccccc2C[C@H]1C(=O)N1CC2CCCCC2[C@H]1C(=O)N[C@@H](CCCCN)C(=O)N[C@@H](CCCCN)C(=O)N[C@@H](CCCCN)C(=O)N[C@@H](CCCCN)C(N)=O (stereo not given in full)
[1]
  MBC: 25 µg/mL (≈ 7.3 µM)
  MIC: 6.25 µg/mL (≈ 1.82 µM)
[2]
  MBC: > 100 µg/mL
  MIC: > 100 µg/mL
[3]
  MBC: 50 µg/mL (≈ 14.6 µM)
  MIC: 50 µg/mL (≈ 14.6 µM)
[4]
  MBC: 100 µg/mL (≈ 29.2 µM)
  MIC: > 100 µg/mL
[5]
  MBC: 100 µg/mL (≈ 29.2 µM)
  MIC: 25 µg/mL (≈ 7.3 µM)
[6]
  MBC: 50 µg/mL (≈ 14.6 µM)
  MIC: 50 µg/mL (≈ 14.6 µM)

## CC(C)C[C@H](NC(=O)[C@@H](N)CCCCN)C(=O)N1Cc2ccccc2C[C@H]1C(=O)N1CC2CCCCC2[C@H]1C(=O)N[C@@H](CCCCN)C(=O)N1Cc2ccccc2C[C@H]1C(=O)N1CC2CCCCC2[C@H]1C(=O)NC(=O)[C@H](Cc1ccccc1)NCC(=O)N1Cc2ccccc2C[C@H]1C(=O)N1CC2CCCCC2[C@H]1C(=O)N[C@@H](CCCCN)C(=O)N1Cc2ccccc2C[C@H]1C(=O)N1CC2CCCCC2[C@H]1C(=O)NC(=O)[C@H](Cc1ccccc1)NCC(=O)N1Cc2ccccc2C[C@H]1C(=O)N1CC2CCCCC2[C@H]1C(=O)N[C@@H](CCCCN)C(=O)N1Cc2ccccc2C[C@H]1C(=O)N1CC2CCCCC2[C@H]1C(=O)N[C@@H](CCCCN)C(=O)N[C@@H](CCCCN)C(=O)N[C@@H](CCCCN)C(=O)N[C@@H](CCCCN)C(N)=O (stereo not given in full)
[1]
  MBC: 25 µg/mL (≈ 7.3 µM)
  MIC: 6.25 µg/mL (≈ 1.82 µM)
[2]
  MBC: 100 µg/mL (≈ 29.2 µM)
  MIC: 100 µg/mL (≈ 29.2 µM)
[3]
  MBC: 50 µg/mL (≈ 14.6 µM)
  MIC: 50 µg/mL (≈ 14.6 µM)
[4]
  MBC: 100 µg/mL (≈ 29.2 µM)
  MIC: 50 µg/mL (≈ 14.6 µM)
[5]
  MBC: 50 µg/mL (≈ 14.6 µM)
  MIC: 12.5 µg/mL (≈ 3.65 µM)
[6]
  MBC: 25 µg/mL (≈ 7.3 µM)
  MIC: 25 µg/mL (≈ 7.3 µM)

## CC(=O)NCC(=O)N[C@@H](CC(=O)O)C(=O)N[C@@H](Cc1ccccc1)C(=O)N1Cc2ccccc2C[C@H]1C(=O)N1CC2CCCCC2[C@H]1C(=O)NCC(=O)N[C@@H](CCCCN)C(=O)N1Cc2ccccc2C[C@H]1C(=O)N1CC2CCCCC2[C@H]1C(=O)NCC(=O)N[C@@H](CC(=O)O)C(=O)N[C@@H](Cc1ccccc1)C(=O)N1Cc2ccccc2C[C@H]1C(=O)N1CC2CCCCC2[C@H]1C(=O)NCC(=O)N[C@@H](CCCCN)C(=O)N1Cc2ccccc2C[C@H]1C(=O)N[C@@H](CCCCN)C(=O)N[C@@H](CCCCN)C(=O)N[C@@H](CCCCN)C(=O)N[C@@H](CCCCN)C(N)=O (stereo not given in full) (Ac-GDF[Tic][Pro(3ξ,4ξ-(CH2)4)]GK[Tic][Pro(3ξ,4ξ-(CH2)4)]GDF[Tic][Pro(3ξ,4ξ-(CH2)4)]GK[Tic]KKKK-NH2)
[1]
  MBC: 50 µg/mL (≈ 18.7 µM)
  MIC: 12.5 µg/mL (≈ 4.68 µM)
[2]
  MBC: 100 µg/mL (≈ 37.4 µM)
  MIC: 100 µg/mL (≈ 37.4 µM)
[3]
  MBC: 50 µg/mL (≈ 18.7 µM)
  MIC: 50 µg/mL (≈ 18.7 µM)
[4]
  MBC: 100 µg/mL (≈ 37.4 µM)
  MIC: 50 µg/mL (≈ 18.7 µM)
[5]
  MBC: 12.5 µg/mL (≈ 4.68 µM)
  MIC: 12.5 µg/mL (≈ 4.68 µM)
[6]
  MBC: 100 µg/mL (≈ 37.4 µM)
  MIC: 100 µg/mL (≈ 37.4 µM)

## CC(=O)NCC(=O)N[C@@H](Cc1ccccc1)C(=O)N1Cc2ccccc2[C@H]1C(=O)N1CC2CCCCC2[C@H]1C(=O)NCC(=O)N[C@@H](CCCCN)C(=O)N1Cc2ccccc2[C@H]1C(=O)N1CC2CCCCC2[C@H]1C(=O)NCC(=O)N[C@@H](Cc1ccccc1)C(=O)N1Cc2ccccc2[C@H]1C(=O)N1CC2CCCCC2[C@H]1C(=O)NCC(=O)N[C@@H](CCCCN)C(=O)N1Cc2ccccc2C[C@H]1C(=O)N[C@@H](CCCCN)C(=O)N[C@@H](CCCCN)C(=O)N[C@@H](CCCCN)C(=O)N[C@@H](CCCCN)C(N)=O (stereo not given in full) (Ac-GF[Pro(3,4-benzo)][Pro(3ξ,4ξ-(CH2)4)]GK[Pro(3,4-benzo)][Pro(3ξ,4ξ-(CH2)4)]GF[Pro(3,4-benzo)][Pro(3ξ,4ξ-(CH2)4)]GK[Tic]KKKK-NH2)
[1]
  MBC: 100 µg/mL (≈ 41.7 µM)
  MIC: 12.5 µg/mL (≈ 5.21 µM)
[2]
  MBC: > 100 µg/mL
  MIC: > 100 µg/mL
[3]
  MBC: > 100 µg/mL
  MIC: > 100 µg/mL
[4]
  MBC: > 100 µg/mL
  MIC: > 100 µg/mL
[5]
  MBC: 12.5 µg/mL (≈ 5.21 µM)
  MIC: 12.5 µg/mL (≈ 5.21 µM)
[6]
  MBC: > 100 µg/mL
  MIC: > 100 µg/mL

## CC(=O)NCC(=O)N[C@@H](Cc1ccccc1)C(=O)N1Cc2ccccc2C[C@H]1C(=O)N1CC2CCCCC2[C@H]1C(=O)NCC(=O)N[C@@H](CC(=O)O)C(=O)N[C@@H](CCCCN)C(=O)N1Cc2ccccc2C[C@H]1C(=O)N1CC2CCCCC2[C@H]1C(=O)NCC(=O)N[C@@H](Cc1ccccc1)C(=O)N1Cc2ccccc2C[C@H]1C(=O)N1CC2CCCCC2[C@H]1C(=O)NCC(=O)N[C@@H](CC(=O)O)C(=O)N[C@@H](CCCCN)C(=O)N1Cc2ccccc2C[C@H]1C(=O)N[C@@H](CCCCN)C(=O)N[C@@H](CCCCN)C(=O)N[C@@H](CCCCN)C(=O)N[C@@H](CCCCN)C(N)=O (stereo not given in full) (Ac-GF[Tic][Pro(3ξ,4ξ-(CH2)4)]GDK[Tic][Pro(3ξ,4ξ-(CH2)4)]GF[Tic][Pro(3ξ,4ξ-(CH2)4)]GDK[Tic]KKKK-NH2)
[1]
  MBC: 50 µg/mL (≈ 18.7 µM)
  MIC: 12.5 µg/mL (≈ 4.68 µM)
[2]
  MBC: > 100 µg/mL
  MIC: > 100 µg/mL
[3]
  MBC: > 100 µg/mL
  MIC: > 100 µg/mL
[4]
  MBC: 100 µg/mL (≈ 37.4 µM)
  MIC: 100 µg/mL (≈ 37.4 µM)
[5]
  MBC: 25 µg/mL (≈ 9.36 µM)
  MIC: 12.5 µg/mL (≈ 4.68 µM)
[6]
  MBC: > 100 µg/mL
  MIC: > 100 µg/mL

## CC(=O)NCC(=O)N[C@@H](Cc1ccccc1)C(=O)N1Cc2ccccc2C[C@H]1C(=O)N1CC2CCCCC2[C@H]1C(=O)NCC(=O)N[C@@H](CCCCN)C(=O)N1Cc2ccccc2C[C@H]1C(=O)N1CC2CCCCC2[C@H]1C(=O)NCC(=O)N[C@@H](Cc1ccccc1)C(=O)N1Cc2ccccc2C[C@H]1C(=O)N1CC2CCCCC2[C@H]1C(=O)NCC(=O)N[C@@H](CCCCN)C(=O)N1Cc2ccccc2C[C@H]1C(=O)CCCCCN[C@@H](CCCCN)C(=O)N[C@@H](CCCCN)C(=O)N[C@@H](CCCCN)C(=O)N[C@@H](CCCCN)C(N)=O (stereo not given in full) (Ac-GF[Tic][Pro(3ξ,4ξ-(CH2)4)]GK[Tic][Pro(3ξ,4ξ-(CH2)4)]GF[Tic][Pro(3ξ,4ξ-(CH2)4)]GK-X2)
[1]
  MBC: > 100 µg/mL
  MIC: 25 µg/mL (≈ 9.96 µM)
[2]
  MBC: > 100 µg/mL
  MIC: 100 µg/mL (≈ 39.8 µM)
[3]
  MBC: > 100 µg/mL
  MIC: 100 µg/mL (≈ 39.8 µM)
[4]
  MBC: 100 µg/mL (≈ 39.8 µM)
  MIC: 100 µg/mL (≈ 39.8 µM)
[5]
  MBC: 25 µg/mL (≈ 9.96 µM)
  MIC: 12.5 µg/mL (≈ 4.98 µM)
[6]
  MBC: > 100 µg/mL
  MIC: 100 µg/mL (≈ 39.8 µM)

## CC(=O)NCCCC(=O)N[C@@H](Cc1ccccc1)C(=O)N1Cc2ccccc2C[C@H]1C(=O)N1CC2CCCCC2[C@H]1C(=O)NCCCC(=O)N[C@@H](CCCCN)C(=O)N1Cc2ccccc2C[C@H]1C(=O)N1CC2CCCCC2[C@H]1C(=O)NCCCC(=O)N[C@@H](Cc1ccccc1)C(=O)N1Cc2ccccc2C[C@H]1C(=O)N1CC2CCCCC2[C@H]1C(=O)NCCCC(=O)N[C@@H](CCCCN)C(=O)N1Cc2ccccc2C[C@H]1C(=O)N[C@@H](CCCCN)C(=O)N[C@@H](CCCCN)C(=O)N[C@@H](CCCCN)C(=O)N[C@@H](CCCCN)C(=O)N[C@@H](CCCCN)C(N)=O (stereo not given in full) (Ac-[GABA]F[Tic][Pro(3ξ,4ξ-(CH2)4)][GABA]K[Tic][Pro(3ξ,4ξ-(CH2)4)][GABA]F[Tic][Pro(3ξ,4ξ-(CH2)4)][GABA]K[Tic]KKKKK-NH2)
[2]
  MBC: > 100 µg/mL
  MIC: > 100 µg/mL
[3]
  MBC: > 100 µg/mL
  MIC: > 100 µg/mL
[4]
  MBC: > 100 µg/mL
  MIC: > 100 µg/mL
[6]
  MBC: > 100 µg/mL
  MIC: > 100 µg/mL

## CC(=O)NCCC(=O)N[C@@H](Cc1ccc(F)cc1)C(=O)N1Cc2ccccc2C[C@H]1C(=O)N1CC2CCCCC2[C@H]1C(=O)NCCC(=O)N[C@@H](CCCCN)C(=O)N1Cc2ccccc2C[C@H]1C(=O)N1CC2CCCCC2[C@H]1C(=O)NCCC(=O)N[C@@H](Cc1ccc(F)cc1)C(=O)N1Cc2ccccc2C[C@H]1C(=O)N1CC2CCCCC2[C@H]1C(=O)NCCC(=O)N[C@@H](CCCCN)C(=O)N1Cc2ccccc2C[C@H]1C(=O)N[C@@H](CN)C(=O)N[C@@H](CN)C(=O)N[C@@H](CN)C(=O)N[C@@H](CN)C(=O)NC(C)=O (stereo not given in full) (Ac-[βAla][Phe(4-F)][Tic][Pro(3ξ,4ξ-(CH2)4)][βAla]K[Tic][Pro(3ξ,4ξ-(CH2)4)][βAla][Phe(4-F)][Tic][Pro(3ξ,4ξ-(CH2)4)][βAla]K[Tic][Dap][Dap][Dap]-X1)
[2]
  MBC: > 100 µg/mL
  MIC: > 100 µg/mL
[3]
  MBC: > 100 µg/mL
  MIC: 50 µg/mL (≈ 20.8 µM)
[4]
  MBC: 100 µg/mL (≈ 41.5 µM)
  MIC: 50 µg/mL (≈ 20.8 µM)
[5]
  MBC: 12.5 µg/mL (≈ 5.19 µM)
  MIC: 12.5 µg/mL (≈ 5.19 µM)
[6]
  MBC: > 100 µg/mL
  MIC: 100 µg/mL (≈ 41.5 µM)
